From patent US9700637B2, “Reaction-based fluorescent probes for detecting zinc” (Massachusetts Institute of Technology, priority 2013, dated 2017)

Columns and labels:
[1] = pH profile of fluorescence; type: physicochemical
Description: FIG. 21 depicts normalized fluorescence signals for DA-ZP1-TPP as a function of increasing pH in the presence of 125 μM ZnCl2 or 250 μM EDTA. Data were acquired 17.5 mM (0.1% v/v) acetic acid in milli-Q H2O beginning at pH 3.5. The pH of the solution was increased by sequential addition of aqueous KOH. The total volume of KOH added was less than 5% of the total volume. λex=475 nm.
(§1) FIG. 26 depicts in vitro characterization of DA-ZP1-A3. (a) UV-vis and (b) fluorescence spectra of a 5 μM solution of DA-ZP1-A3 in buffer (50 mM PIPES, 100 mM KCl; pH 7). Spectra were acquired initially, upon addition of 100 μM ZnCl2, and again after addition of 200 μM EDTA. (c) Time-dependent change in the normalized absorbance of a ca. 5 μM solution DA-ZP1-A3 at 37° C. in buffer (50 mM PIPES, 100 mM KCl; pH 7) in the presence of 100 μM ZnCl2 (λabs=510 nm) or EDTA (λabs=520 nm). (d) Integrated fluorescence intensity of a 1 μM solution of ZP1-A3 (circles) or DA-ZP1-A3 (squares) as a function of pH.
Next, we investigated the pH profile of DA-ZP1-TPP. The use of nitrogen atoms to coordinate zinc endows Zinpyr sensors with selectivity for zinc over calcium and magnesium, but also renders them pH sensitive. […] Protonation of these amines leads to increased background fluorescence because protons can diminish PeT in a manner similar to that of zinc ions. […]

[2] = test system: porcine liver esterase; assay: Deacetylation by porcine liver esterase (UV-vis absorbance); type: in vitro ADME; conditions: 1.25 units porcine liver esterase, 37° C., pH 7
Description: (§2) FIG. 23 depicts kinetic traces for the deacetylation of DA-ZP1-TPP. The half-life for deacetylation of a 2.75 μM solution of DA-ZP1-TPP, at 37° C. in 50 mM PIPES buffer (pH 7) and 100 mM KCl, was measured in the presence of 125 μM ZnCl2 (+Zn), 250 μM EDTA (−Zn), or 1.25 units of porcine liver esterase (Esterase). The change in absorbance at 520 nm (EDTA and esterase) or 510 nm (ZnCl2) was used to monitor the reaction.
DA-ZP1-TPP has a zinc-induced fluorescence response and is relatively stable to uncatalyzed hydrolysis and esterase activity. […] Other late 3d-block transition metal ions, such as Co(II) and Cu(II), can coordinate to DA-ZP1-TPP but are generally not available in appreciable chelatable quantities within the cell. In addition to monitoring selectivity in the fluorescence response, we used UV-vis spectroscopy to investigate the rate and zinc-specificity of metal-mediated ester hydrolysis. DA-ZP1-TPP deacetylation results in opening of the lactone ring and restoration of conjugation across the xanthene ring. By monitoring the absorbance of the xanthene it system, we could interrogate deacetylation kinetics in a manner that is independent of the fluorescence response. […] To determine whether ester hydrolysis depends on the metal-binding core of DA-ZP1-TPP, we measured the deacetylation kinetics of fluorescein diacetate (DA-FL) under analogous conditions. […]

[3] = Deacetylation kinetics monitored by UV-vis absorbance (metal-mediated and uncatalyzed hydrolysis); type: physicochemical; conditions: 2.75 μM, 125 μM ZnCl2, 37° C., 50 mM PIPES pH 7, 100 mM KCl, absorbance 510 nm
Description: as §2
as §1, with “pH. […]” for “pH.”
DA-ZP1-TPP has a zinc-induced fluorescence response and is relatively stable to uncatalyzed hydrolysis and esterase activity. […] Other late 3d-block transition metal ions, such as Co(II) and Cu(II), can coordinate to DA-ZP1-TPP but are generally not available in appreciable chelatable quantities within the cell. […]

pH at which a strong zinc-dependent fluorescence response is displayed ([1]; presence of excess zinc ions (125 μM ZnCl2)): > 5 | t1/2-Esterase of deacetylation [2]: 2.9 h
Compound: CC(=O)Oc1c(Cl)cc2c(c1CN(Cc1ccccn1)Cc1ccccn1)Oc1c(cc(Cl)c(OC(C)=O)c1CN(Cc1ccccn1)Cc1ccccn1)C21OC(=O)c2ccc(C(=O)NCC[P+](c3ccccc3)(c3ccccc3)c3ccccc3)cc21 [DA-ZP1-TPP]
fluorescence turn-on under acidic conditions ([1]; absence of zinc): no significant fluorescence turn-on under acidic conditions | kobs of zinc-induced deacetylation [3]: 0.0855 ± 0.019 s⁻¹
